Source: patent US20230148005A1, “MACROCYCLIC COMPOUNDS AND USES THEREOF” (THESEUS PHARMACEUTICALS, INC., priority 2020, published 2023)
Read-outs that look alike come from different tables or passages of the source.

Experiments:
[1] = target: Ba/F3 EGFR-Del19/T790M (Homo sapiens, UniProt P00533, T790M, cells depend on it, form not given); assay: Ba/F3 viability assay (CellTiter-Glo), DT; type: cell-based; details: anti-proliferation, read-out: BaF3 DT IC50
Method in brief: (§1)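 Antiproliferative activity is assessed through a cell viability read-out, run in parallel across the mutant-EGFR-driven and parental Ba/F3 cells.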

[2] = target: Ba/F3 EGFR-Del19/T790M/C797S (Homo sapiens, UniProt P00533, T790M/C797S, cells depend on it, form not given); assay: Ba/F3 viability assay (CellTiter-Glo), DTC; type: cell-based; details: anti-proliferation, read-out: BaF3 DTC IC50
Method in brief: as §1

[3] = target: Ba/F3 EGFR-Del19/C797S (Homo sapiens, UniProt P00533, C797S, cells depend on it, form not given); assay: Ba/F3 viability assay (CellTiter-Glo), DC; type: cell-based; details: anti-proliferation, read-out: BaF3 DC IC50
Method in brief: as §1

[4] = system: Ba/F3 Parental; assay: Ba/F3 viability assay (CellTiter-Glo), parental; type: cell-based
Method in brief: as §1

[5] = target: EGFR^L858R/T790M/C^797S (Homo sapiens, UniProt P00533, C797S/L858R/T790M); assay: in vitro kinase assay (HTRF KinEASE-TK kit), LTC; type: biochemical; details: kinase inhibition
Source text: (§2) Assays using an in vitro kinase assay kit (HTRF KinEASE-TK kit) can be used to study the inhibitory activity of compounds described herein with respect to EGFR mutants such as EGFR^L858R, EGFR^L58R/T790M, and EGFR^L858R/T790M/C^797S.

[6] = target: EGFR^L858R (Homo sapiens, UniProt P00533, L858R); assay: in vitro kinase assay (HTRF KinEASE-TK kit), L; type: biochemical; details: kinase inhibition
Source text: as §2

[7] = target: EGFR^L58R/T790M (Homo sapiens, UniProt P00533, L858R/T790M); assay: in vitro kinase assay (HTRF KinEASE-TK kit), LT; type: biochemical; details: kinase inhibition
Source text: as §2

[8] = Mus musculus, BaF3, anti-proliferation

Chain of EGFR^L858R/T790M/C^797S (P00533 25-1210 T790M/C797S/L858R): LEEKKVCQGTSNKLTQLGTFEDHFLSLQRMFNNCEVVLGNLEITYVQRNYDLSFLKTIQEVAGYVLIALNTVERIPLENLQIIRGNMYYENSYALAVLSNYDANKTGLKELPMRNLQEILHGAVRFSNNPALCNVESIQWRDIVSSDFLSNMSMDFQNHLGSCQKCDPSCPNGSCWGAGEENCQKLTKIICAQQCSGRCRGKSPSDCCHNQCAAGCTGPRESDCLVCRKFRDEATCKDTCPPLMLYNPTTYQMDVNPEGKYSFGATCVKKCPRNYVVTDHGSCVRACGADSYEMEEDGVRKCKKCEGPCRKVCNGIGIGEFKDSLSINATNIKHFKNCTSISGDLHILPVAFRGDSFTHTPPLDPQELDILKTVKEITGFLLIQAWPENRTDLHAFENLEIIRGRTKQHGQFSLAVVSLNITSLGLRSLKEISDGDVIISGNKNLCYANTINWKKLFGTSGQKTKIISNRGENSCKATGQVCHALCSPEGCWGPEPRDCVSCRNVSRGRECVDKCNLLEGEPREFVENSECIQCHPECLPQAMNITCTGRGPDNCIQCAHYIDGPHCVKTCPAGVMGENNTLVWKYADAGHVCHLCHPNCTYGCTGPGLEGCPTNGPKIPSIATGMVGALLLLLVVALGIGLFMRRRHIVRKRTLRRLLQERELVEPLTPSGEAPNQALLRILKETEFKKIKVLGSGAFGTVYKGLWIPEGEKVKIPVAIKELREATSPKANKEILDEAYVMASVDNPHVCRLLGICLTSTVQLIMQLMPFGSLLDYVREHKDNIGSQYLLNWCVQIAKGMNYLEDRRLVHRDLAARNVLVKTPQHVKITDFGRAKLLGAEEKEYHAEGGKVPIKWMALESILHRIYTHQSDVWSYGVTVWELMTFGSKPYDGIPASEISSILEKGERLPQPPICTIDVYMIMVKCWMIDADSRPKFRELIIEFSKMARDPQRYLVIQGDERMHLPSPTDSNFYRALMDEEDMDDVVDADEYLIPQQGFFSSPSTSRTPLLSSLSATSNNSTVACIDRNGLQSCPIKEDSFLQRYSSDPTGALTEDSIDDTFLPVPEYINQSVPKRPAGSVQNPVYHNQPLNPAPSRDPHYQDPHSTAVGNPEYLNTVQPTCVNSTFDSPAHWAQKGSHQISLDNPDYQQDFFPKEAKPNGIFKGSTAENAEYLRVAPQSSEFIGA
Chain of EGFR^L58R/T790M (P00533 25-1210 T790M/L858R): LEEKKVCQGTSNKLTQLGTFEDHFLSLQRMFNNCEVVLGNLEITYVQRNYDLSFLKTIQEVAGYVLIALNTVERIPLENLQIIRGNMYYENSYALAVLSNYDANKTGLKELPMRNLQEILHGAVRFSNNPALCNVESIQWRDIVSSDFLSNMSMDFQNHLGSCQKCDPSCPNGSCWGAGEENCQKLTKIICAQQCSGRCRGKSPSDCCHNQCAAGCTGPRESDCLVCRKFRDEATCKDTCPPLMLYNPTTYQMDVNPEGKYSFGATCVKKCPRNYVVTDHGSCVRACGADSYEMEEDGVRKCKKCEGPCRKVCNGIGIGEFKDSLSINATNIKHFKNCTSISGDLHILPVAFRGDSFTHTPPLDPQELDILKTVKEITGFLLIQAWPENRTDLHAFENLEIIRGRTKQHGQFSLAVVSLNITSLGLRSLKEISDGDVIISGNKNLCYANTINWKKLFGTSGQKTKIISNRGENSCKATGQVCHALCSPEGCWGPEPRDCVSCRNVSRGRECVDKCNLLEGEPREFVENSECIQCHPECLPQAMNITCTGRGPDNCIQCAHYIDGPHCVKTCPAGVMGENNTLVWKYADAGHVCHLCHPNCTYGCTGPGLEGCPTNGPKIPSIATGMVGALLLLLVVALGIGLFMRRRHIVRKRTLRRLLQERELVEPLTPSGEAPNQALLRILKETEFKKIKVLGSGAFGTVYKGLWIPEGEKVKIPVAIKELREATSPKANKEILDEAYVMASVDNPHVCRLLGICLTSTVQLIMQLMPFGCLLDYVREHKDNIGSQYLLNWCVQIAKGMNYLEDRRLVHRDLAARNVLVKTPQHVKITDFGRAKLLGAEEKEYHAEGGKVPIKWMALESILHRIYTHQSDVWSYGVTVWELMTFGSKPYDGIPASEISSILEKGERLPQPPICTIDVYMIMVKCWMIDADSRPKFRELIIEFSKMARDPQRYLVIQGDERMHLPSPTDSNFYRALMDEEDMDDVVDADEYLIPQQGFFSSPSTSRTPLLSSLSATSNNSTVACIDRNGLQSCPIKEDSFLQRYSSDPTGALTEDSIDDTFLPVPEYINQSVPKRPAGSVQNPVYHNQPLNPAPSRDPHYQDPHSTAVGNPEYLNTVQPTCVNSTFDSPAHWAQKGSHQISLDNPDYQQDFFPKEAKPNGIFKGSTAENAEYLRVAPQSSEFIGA
Chain of Ba/F3 EGFR-Del19/T790M (P00533 with tags, fused parts or gaps DEL746-750/T790M, form open): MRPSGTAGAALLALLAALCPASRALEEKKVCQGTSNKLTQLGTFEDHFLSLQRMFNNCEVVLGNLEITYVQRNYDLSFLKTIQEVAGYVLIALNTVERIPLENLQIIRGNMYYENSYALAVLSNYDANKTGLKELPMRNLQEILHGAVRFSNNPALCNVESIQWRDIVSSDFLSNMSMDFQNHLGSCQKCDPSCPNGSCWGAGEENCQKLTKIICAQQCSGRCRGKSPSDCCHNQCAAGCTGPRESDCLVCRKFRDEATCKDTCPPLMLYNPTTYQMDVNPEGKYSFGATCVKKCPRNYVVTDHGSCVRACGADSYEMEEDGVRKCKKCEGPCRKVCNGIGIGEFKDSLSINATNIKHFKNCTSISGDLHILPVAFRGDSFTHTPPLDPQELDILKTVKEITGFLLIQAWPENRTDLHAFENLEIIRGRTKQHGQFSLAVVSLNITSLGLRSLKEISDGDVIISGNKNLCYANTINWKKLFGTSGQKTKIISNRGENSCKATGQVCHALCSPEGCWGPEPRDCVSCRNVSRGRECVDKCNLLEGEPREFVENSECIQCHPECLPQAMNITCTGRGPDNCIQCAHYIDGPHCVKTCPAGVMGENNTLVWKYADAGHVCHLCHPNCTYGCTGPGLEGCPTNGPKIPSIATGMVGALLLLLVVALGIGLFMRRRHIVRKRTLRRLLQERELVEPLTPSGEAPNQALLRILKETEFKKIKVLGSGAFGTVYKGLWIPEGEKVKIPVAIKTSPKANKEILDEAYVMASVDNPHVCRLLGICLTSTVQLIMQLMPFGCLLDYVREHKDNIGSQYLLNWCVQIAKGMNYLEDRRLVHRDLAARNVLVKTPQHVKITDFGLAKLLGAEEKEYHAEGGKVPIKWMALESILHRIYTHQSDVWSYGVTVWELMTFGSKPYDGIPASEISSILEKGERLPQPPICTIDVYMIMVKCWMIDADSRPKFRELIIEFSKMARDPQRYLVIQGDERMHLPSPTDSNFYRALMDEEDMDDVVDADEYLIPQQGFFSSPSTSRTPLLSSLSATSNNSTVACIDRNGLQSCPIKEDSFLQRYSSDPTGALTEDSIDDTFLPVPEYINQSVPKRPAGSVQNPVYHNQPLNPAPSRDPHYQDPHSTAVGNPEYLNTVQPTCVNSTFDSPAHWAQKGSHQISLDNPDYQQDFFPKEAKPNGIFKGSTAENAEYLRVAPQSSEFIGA
Chain of EGFR^L858R (P00533 25-1210 L858R): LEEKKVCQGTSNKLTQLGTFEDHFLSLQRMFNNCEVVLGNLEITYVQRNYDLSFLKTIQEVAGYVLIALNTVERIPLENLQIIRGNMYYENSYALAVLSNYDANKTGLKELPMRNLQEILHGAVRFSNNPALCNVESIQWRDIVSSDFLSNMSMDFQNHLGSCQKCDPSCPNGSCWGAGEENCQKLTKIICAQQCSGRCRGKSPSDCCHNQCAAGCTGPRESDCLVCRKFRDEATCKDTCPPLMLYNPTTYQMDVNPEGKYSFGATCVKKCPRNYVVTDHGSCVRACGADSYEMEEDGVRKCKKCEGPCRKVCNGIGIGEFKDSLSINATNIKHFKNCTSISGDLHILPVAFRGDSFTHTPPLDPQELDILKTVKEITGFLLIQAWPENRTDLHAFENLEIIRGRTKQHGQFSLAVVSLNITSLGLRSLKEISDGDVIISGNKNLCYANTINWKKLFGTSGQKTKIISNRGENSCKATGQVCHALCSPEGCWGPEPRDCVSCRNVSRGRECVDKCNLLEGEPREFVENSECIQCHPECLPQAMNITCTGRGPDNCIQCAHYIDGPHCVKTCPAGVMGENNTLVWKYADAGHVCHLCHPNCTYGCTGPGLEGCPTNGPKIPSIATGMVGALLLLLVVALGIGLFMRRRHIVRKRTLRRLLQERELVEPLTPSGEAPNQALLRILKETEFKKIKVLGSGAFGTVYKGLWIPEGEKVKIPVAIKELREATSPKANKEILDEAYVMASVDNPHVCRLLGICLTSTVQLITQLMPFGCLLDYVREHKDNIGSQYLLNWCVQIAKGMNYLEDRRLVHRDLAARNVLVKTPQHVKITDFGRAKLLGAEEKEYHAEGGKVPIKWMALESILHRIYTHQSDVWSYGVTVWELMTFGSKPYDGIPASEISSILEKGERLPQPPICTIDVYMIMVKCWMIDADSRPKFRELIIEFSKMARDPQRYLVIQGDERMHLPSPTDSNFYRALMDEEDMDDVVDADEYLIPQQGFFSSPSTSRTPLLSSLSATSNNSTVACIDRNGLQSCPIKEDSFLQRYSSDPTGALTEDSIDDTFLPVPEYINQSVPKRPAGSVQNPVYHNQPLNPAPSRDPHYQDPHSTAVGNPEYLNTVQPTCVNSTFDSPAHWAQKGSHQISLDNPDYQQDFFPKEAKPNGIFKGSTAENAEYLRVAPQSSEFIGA

Compound | GI50 [1] | GI50 [2] | GI50 [3] | IC50 [4, 8] | IC50 [5] | IC50 [6] | IC50 [7] | IC50 ([4]; anti-proliferation, read-out: BaF3 parental IC50)
C[C@H]1CCOc2c(cnn2C)-c2nccc(n2)Nc2cc3c(cn2)c(N2CC[C@@H](N(C)CCF)C2)nn31 [(179)] | < 10 nM | < 10 nM | 10 to 100 nM | 100 to 1000 nM | < 10 nM | < 10 nM | < 10 nM | –
C[C@H]1CCOc2c(cnn2C)-c2nccc(n2)Nc2cc3c(cn2)c(N2CC[C@H](N(C)CCCF)C2)nn31 [(180)] | 10 to 100 nM | < 10 nM | 10 to 100 nM | 100 to 1000 nM | < 10 nM | 10 to 100 nM | < 10 nM | –
C[C@H]1CCOc2c(cnn2C)-c2nccc(n2)Nc2cc3c(cn2)c(N2CC[C@@H](N(C)C)C2)nn31 [(181)] | 10 to 100 nM | 10 to 100 nM | 10 to 100 nM | – | < 10 nM | < 10 nM | < 10 nM | 100 to 1000 nM
C[C@H]1CCOc2c(cnn2C)-c2nccc(n2)Nc2cc3c(cn2)c(-c2cccc(CN(C)C)n2)nn31 [(182)] | 10 to 100 nM | < 10 nM | 10 to 100 nM | 100 to 1000 nM | < 10 nM | 10 to 100 nM | < 10 nM | –
C[C@H]1CCOc2c(cnn2C)-c2nccc(n2)Nc2cc3c(cn2)c(-c2cc(CN(C)C)ccn2)nn31 [(183)] | 10 to 100 nM | < 10 nM | 10 to 100 nM | 100 to 1000 nM | < 10 nM | < 10 nM | < 10 nM | –
C[C@H]1CCOc2c(cnn2C)-c2nccc(n2)Nc2cc3c(cn2)c(-c2ccc(CN(C)CCF)n2C)nn31 [(184), N-[[5-[(16S)-11,16-dimethyl-13-oxa-2,6,10,11,17,18,22,25-octazapentacyclo[15.5.2.1^3,7.0^8,12.0^20,24]pentacosa-1(22),3,5,7(25),8(12),9,18,20,23-nonaen-19-yl]-1-methyl-pyrrol-2-yl]methyl]-2-fluoro-N-methyl-ethanamine] | < 10 nM | < 10 nM | 10 to 100 nM | 100 to 1000 nM | < 10 nM | < 10 nM | < 10 nM | –
C[C@H]1CCOc2c(cnn2C)-c2nccc(n2)Nc2cc3c(cn2)c(-c2cc4c(n2C)CCCN(C)C4)nn31 [(185)] | 10 to 100 nM | 10 to 100 nM | 10 to 100 nM | 100 to 1000 nM | < 10 nM | < 10 nM | < 10 nM | –
C[C@H]1CCOc2c(cnn2C)-c2nccc(n2)Nc2cc3c(cn2)c(-c2ccc(CN4CC[C@@H](N(C)C)C4)n2C)nn31 [(186)] | < 10 nM | < 10 nM | < 10 nM | 100 to 1000 nM | < 10 nM | < 10 nM | < 10 nM | –
C[C@H]1CCOc2c(cnn2C)-c2nccc(n2)Nc2cc3c(cn2)c(-c2ccc(CN4CC[C@H](N(C)C)C4)n2C)nn31 [(187)] | < 10 nM | < 10 nM | < 10 nM | 100 to 1000 nM | < 10 nM | < 10 nM | < 10 nM | –
CC(C)NCc1ccc(-c2nn3c4cc(ncc24)Nc2ccnc(n2)-c2cnn(C)c2OCC[C@@H]3C)n1C [(188)] | < 10 nM | < 10 nM | < 10 nM | 100 to 1000 nM | < 10 nM | < 10 nM | < 10 nM | –
CC(C)N(C)Cc1ccc(-c2nn3c4cc(ncc24)Nc2ccnc(n2)-c2cnn(C)c2OCC[C@@H]3C)n1C [(189)] | < 10 nM | < 10 nM | < 10 nM | 100 to 1000 nM | < 10 nM | < 10 nM | < 10 nM | –
C[C@H]1CCOc2c(cnn2C)-c2nccc(n2)Nc2cc3c(cn2)c(-c2ccc(CN4CCN(CCCF)CC4)n2C)nn31 [(190)] | < 10 nM | < 10 nM | < 10 nM | 100 to 1000 nM | < 10 nM | < 10 nM | < 10 nM | –
CCn1c(CN(C)C)ccc1-c1nn2c3cc(ncc13)Nc1ccnc(n1)-c1cnn(C)c1OCC[C@@H]2C [(191)] | 10 to 100 nM | < 10 nM | < 10 nM | 100 to 1000 nM | < 10 nM | < 10 nM | < 10 nM | –
C[C@H]1CCOc2c(cnn2C)-c2nccc(n2)Nc2cc3c(cn2)c(-c2ccc(CN(C)CCCF)n2C)nn31 [(192)] | < 10 nM | < 10 nM | < 10 nM | 100 to 1000 nM | < 10 nM | < 10 nM | < 10 nM | –
C[C@H]1CCOc2c(cnn2C)-c2nccc(n2)Nc2cc3c(cn2)c(-c2ccc(CN4CCN(CCF)CC4)n2C)nn31 [(193)] | < 10 nM | < 10 nM | < 10 nM | 100 to 1000 nM | < 10 nM | < 10 nM | < 10 nM | –
